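In this assay, cells in 96-well plates receive the compound at five concentrations for 48 hours. Endpoints are linearly interpolated between the surrounding concentrations. Abbreviation: GI50, concentration required for 50% inhibition of growth.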 The source made the active and inactive calls. No stated cut-off is given here; in the data, active = GI50 up to about 1.1 µM and inactive = higher.
Tests used:
Assay in all cases: growth of human tumour cells (NCI), 48 h
BT-549 = system: BT-549
RPMI-8226 = system: RPMI-8226
MOLT-4 = system: MOLT-4
OVCAR-4 = system: OVCAR-4
KM12 = system: KM12
HT-29 = system: HT-29
MCF7 = system: MCF7
MDA-MB-435 = system: MDA-MB-435
UACC-62 = system: UACC-62
SK-OV-3 = system: SK-OV-3
SK-MEL-5 = system: SK-MEL-5
SN12C = system: SN12C
T47D = system: T47D
COLO 205 = system: COLO 205
IGROV-1 = system: IGROV-1
HOP-62 = system: HOP-62
NCI/ADR-RES = system: NCI/ADR-RES
SF-295 = system: SF-295
NCI-H226 = system: NCI-H226

Measured: GI50

O=C(CCN1CCOCC1)Nc1ccc2sc3ccccc3c(=O)c2n1
inactive: BT-549 28.7 µM | RPMI-8226 28 µM | MOLT-4 > 10 µM | OVCAR-4 61.1 µM | KM12 50.4 µM | HT-29 > 100 µM | MCF7 49.8 µM | MDA-MB-435 42.4 µM | UACC-62 34.8 µM | SK-OV-3 47.6 µM | SK-MEL-5 27.1 µM | SN12C 35 µM | T47D 20.6 µM | COLO 205 25 µM | IGROV-1 30.1 µM | HOP-62 44.7 µM | NCI/ADR-RES 43.4 µM | SF-295 82.4 µM

CCCCC(C#N)(OP1(=O)OC(c2ccccc2)C(C)N1C)c1ccccc1 (stereo unspecified)
inactive: BT-549 20.3 µM | RPMI-8226 20.8 µM | MOLT-4 15.7 µM | KM12 19.6 µM | HT-29 18.1 µM | MCF7 19.9 µM | MDA-MB-435 17.7 µM | UACC-62 14.3 µM | SK-OV-3 19.5 µM | SK-MEL-5 17.3 µM | SN12C 16.7 µM | T47D 21.3 µM | COLO 205 17.8 µM | IGROV-1 16.7 µM | HOP-62 21.6 µM | NCI/ADR-RES 20 µM | SF-295 17.5 µM

CCOC(=O)c1nc2ccccc2nc1Nc1cc(OC)c(OC)c(OC)c1
inactive: BT-549 > 100 µM | RPMI-8226 > 100 µM | MOLT-4 > 100 µM | OVCAR-4 > 100 µM | KM12 > 100 µM | HT-29 > 100 µM | MCF7 > 100 µM | MDA-MB-435 > 100 µM | UACC-62 > 100 µM | SK-OV-3 > 100 µM | SK-MEL-5 > 100 µM | SN12C > 100 µM | T47D > 100 µM | COLO 205 > 100 µM | IGROV-1 > 100 µM | HOP-62 > 100 µM | NCI/ADR-RES > 100 µM | SF-295 > 100 µM

COc1cc(C2SCC(=O)N2c2ccc(NC(=O)c3ccc(N4C(=O)CSC4c4cc(OC)c(OC)c(OC)c4)cc3)cc2)cc(OC)c1OC (stereo unspecified)
inactive: BT-549 56 µM | RPMI-8226 28.9 µM | MOLT-4 34.8 µM | OVCAR-4 33 µM | KM12 33 µM | HT-29 93.1 µM | MCF7 43.3 µM | MDA-MB-435 20.6 µM | UACC-62 24.9 µM | SK-OV-3 > 100 µM | SK-MEL-5 46.3 µM | SN12C > 100 µM | T47D 19.8 µM | COLO 205 > 100 µM | IGROV-1 32.4 µM | HOP-62 76.4 µM | NCI/ADR-RES 25.2 µM | SF-295 29.3 µM

O=C(/C=C/c1ccc2c(c1)OCO2)Cc1nc2ncccc2[nH]c1=O
inactive: BT-549 > 100 µM | RPMI-8226 > 100 µM | MOLT-4 > 100 µM | KM12 61.1 µM | HT-29 > 100 µM | MCF7 > 100 µM | MDA-MB-435 > 100 µM | UACC-62 9.53 µM | SK-OV-3 98.9 µM | SK-MEL-5 > 100 µM | SN12C > 100 µM | T47D 78.3 µM | COLO 205 70.3 µM | IGROV-1 94.6 µM | HOP-62 39 µM | NCI/ADR-RES > 100 µM | SF-295 69.3 µM

O=C(O)CCc1nc2cc3ccccc3cc2[nH]c1=O
inactive: BT-549 > 100 µM | MOLT-4 > 100 µM | OVCAR-4 > 100 µM | KM12 > 100 µM | HT-29 > 100 µM | NCI-H226 > 100 µM | MCF7 65.6 µM | MDA-MB-435 > 100 µM | UACC-62 > 100 µM | SK-OV-3 > 100 µM | SK-MEL-5 > 100 µM | SN12C > 100 µM | T47D > 100 µM | COLO 205 > 100 µM | IGROV-1 > 100 µM | HOP-62 > 100 µM | NCI/ADR-RES > 100 µM | SF-295 > 100 µM

COc1ccc(OC)c2sc(N3C(=O)/C(=C/c4ccc(Cl)cc4)N=C3c3ccccc3)nc12
inactive: BT-549 > 100 µM | RPMI-8226 33.7 µM | MOLT-4 24.7 µM | KM12 60 µM | HT-29 > 100 µM | MCF7 29.7 µM | MDA-MB-435 30.8 µM | UACC-62 76.6 µM | SK-OV-3 > 100 µM | SK-MEL-5 65 µM | SN12C > 100 µM | T47D 23.3 µM | COLO 205 > 100 µM | IGROV-1 85.9 µM | HOP-62 > 100 µM | NCI/ADR-RES > 100 µM | SF-295 76.6 µM

CN(C)c1ccc(/C=C2\N=C(c3ccccc3)N(c3nc4ccc(Sc5ccccc5)cc4[nH]3)C2=O)cc1
inactive: BT-549 34.9 µM | RPMI-8226 24.8 µM | MOLT-4 30.2 µM | OVCAR-4 40.3 µM | KM12 27.8 µM | HT-29 32.4 µM | MCF7 30 µM | MDA-MB-435 16.7 µM | UACC-62 22.5 µM | SK-OV-3 13.7 µM | SK-MEL-5 32.4 µM | SN12C 45.4 µM | T47D 44 µM | COLO 205 21.6 µM | IGROV-1 61.5 µM | HOP-62 33.1 µM | NCI/ADR-RES 25.9 µM | SF-295 23.6 µM

Source: ChEMBL document CHEMBL1201862, “PubChem BioAssay data set” (2004)
